Reference: patent US20260083751A1, “ALLOSTERIC MODULATORS OF ANDROGEN RECEPTOR COACTIVATOR RECRUITMENT FOR CRPC THERAPY” (University of Pittsburgh – Of the Commonwealth System of …, priority 2022, published 2026)
Like-named read-outs stand apart in the source and are kept apart here.

Molecular target: T1, AR-TIF2 PPI (Homo sapiens, UniProt P10275)
T1 construct: AR-LBD residues (662-919) were incorporated into one biosensor; expressed in transfected cells; host or cells: U-2 OS osteosarcoma cells, coinfected with recombinant adenoviruses
T1 sequence (P10275 662-919): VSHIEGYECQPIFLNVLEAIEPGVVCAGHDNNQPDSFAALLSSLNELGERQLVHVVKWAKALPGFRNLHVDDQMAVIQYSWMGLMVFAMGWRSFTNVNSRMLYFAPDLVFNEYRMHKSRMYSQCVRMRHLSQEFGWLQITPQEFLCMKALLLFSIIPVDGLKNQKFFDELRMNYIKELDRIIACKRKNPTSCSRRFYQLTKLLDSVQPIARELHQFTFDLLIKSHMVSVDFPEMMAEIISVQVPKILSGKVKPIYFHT
Test: AR-TIF2 PPIB HCS assay: disruption of preformed DHT-induced AR-TIF2 PPI complexes (DHT then compound)
Type: cell-based
Conditions: U-2 OS cells
Procedure: AR-TIF2 Protein-Protein Interaction Biosensor Assay: The AR-TIF2 PPIB HCS assay was performed in U-2 OS osteosarcoma cells as described previously (Fancher et al., Assay Drug Dev Technol. 2016, 14:453-477; Fancher et al., Assay Drug Dev Technol. 2018, 16:297-319; Hua et al., Assay Drug Dev Technol. 2014, 12:395-418; Hua et al., Methods Mol Biol. 2018, 1683:211-227). Briefly, U-2 OS cells were coinfected with recombinant adenovirus biosensor expression constructs and seeded at 2,500 cells per well in 384-well collagen-coated microplates (Greiner Bio-One #781956) and plates were incubated overnight at 37° C. in 5% CO2 and 95% humidity. […] After the appropriate time, assay plates were fixed by transfer of 50 μL of pre-warmed (37° C.) 7.4% formaldehyde and 2 μg/mL Hoechst 33342 in PBS and incubation at room temperature for 30 minutes. Liquid was aspirated, plates were washed twice with 85 μL PBS, leaving the final wash in the plate. Plates were sealed with adhesive aluminum plate seals, and fluorescent images of three fields of view were acquired in the DAPI (Hoechst stained nuclei), FITC (TIF2-GFP) and Texas Red (AR-RFP) channels on an ImageXpress® Micro (IXM) automated HCS platform (Molecular Devices LLC, Sunnyvale, CA) using a 10× Plan Fluor 0.3 NA objective. Images were analyzed using the Translocation Enhanced (TE) image analysis module of the MetaXpress® software (Molecular Devices, LLC, San Jose, CA) as described previously (Fancher et al., Assay Drug Dev Technol. 2016, 14:453-477; Fancher et al., Assay Drug Dev Technol. 2018, 16:297-319; Hua et al., Assay Drug Dev Technol. 2014, 12:395-418; Hua et al., Methods Mol Biol. 2018, 1683:211-227).
For the 96-well AR-LBD H^3-DHT radioligand binding assay, eight minimum and maximum plate control wells were utilized to normalize the data. For the PC cell line growth inhibition assays the DMSO control data from the TO and T72 assay plates was used to assess the dynamic range of the T0 to T72 cell growth, and to calculate S:B ratios and Z′-factor coefficient statistics for the assay signal window (T0 to T72). To normalize the 72 h compound exposure PC growth inhibition data, the signals from the compound treated wells were processed and expressed as % of the T72 DMSO plate controls. IC50 and GI50 values for each of the bioassays were calculated using GraphPad Prism 9 software to plot and fit data to curves using the Sigmoidal dose response variable slope equation Y=Bottom+[Top-Bottom]/[1+10^(Log EC50−X)*HillSlope].
A positional AR-TFI2 protein-protein interaction biosensor (PPIB) assay was used to identify small molecules that inhibited DHT-induced formation of AR-TIF2 PPIs and/or disrupted pre-existing AR-TIF2 PPIs (Fancher et al., Assay Drug Dev Technol 2016, 14(8):453-477; Fancher et al., Assay Drug Dev Technol 2018, 16(6):297-319; Hua et al., Assay Drug Dev Technol 2014, 12:395-418; Hua et al., Methods Mol biol 2018, 1683:211-227). AR-LBD residues (662-919) were incorporated into one biosensor and TIF2 residues (725-840) containing the 3rd NR box LXXLL motif into the second interacting biosensor partner (Id.) The AR-TIF2 PPIB recapitulates the orthosteric ligand (OSL)-induced translocation of AR from the cytoplasm into the nucleus where PPIs with TIF2 result in colocalization of both biosensors in the nucleolus. Using three libraries, a total of 143,535 compounds were screened—a 10,000-compound ChemDiv PPI focused diversity library, a 50,000-compound ChemBridge diversity library, and a 83,535-compound library provided by the NCI's Chemical Biology Consortium. The 10K and 50K diversity libraries were subsets of 142K and 810K parent libraries, enabling screening of a representative subset of >1×10^6 compounds. AR-TIF2 PPI inhibitor and disruptor actives were confirmed in the HCS assay and counter screens designed to identify and exclude nuisance/interference or non-selective compounds (Fancher et al., Assay Drug Dev Technol 2018, 16(6):297-319). […]

[1] = 25 nM DHT, read-out: Disruption of DHT-induced AR-TIF2 PPIs IC50
[2] = DHT then compound, read-out: D then C IC50

SMILES	IC50 [1] [µM]	IC50 [2] [µM]
Cc1ccccc1-c1cc(O)c2c(c1)CN(c1nc(C(N)=O)cs1)CCO2 [Compound S1-1]	24.8	
Cc1nc(N)cc(N2CCOc3c(O)cc(-c4ccccc4C)cc3C2)n1 [Compound S1-2]		63
COc1cc(-c2ccc(C)s2)cc2c1OCCN(c1nc(C(N)=O)cs1)C2 [Compound S1-5]	> 100	> 100
Cc1nsc(NC(=O)N2CCC(Sc3ccccc3C)CC2)n1 [Compound S2-6]	5.64	5.8
Cc1c(-c2ccccc2F)[nH]c2ccc(CNC(=O)CCc3cn[nH]c3)cc12 [Compound S3-11]	26.1	
Cc1c(-c2ccccc2F)[nH]c2ccc(CNC(=O)CCc3cnccn3)cc12 [Compound S3-12]		24.7
Cc1c(-c2ccc(F)cc2)[nH]c2ccc(CNC(=O)c3ccc(CO)o3)cc12 [Compound S3-15]		30.6
CNC(=O)c1ccc(-c2c[nH]c3c(C)cccc23)cc1 [Compound S3-21]	> 100	> 100

The remaining lines, values ahead:

IC50 [1] [µM]	IC50 [2] [µM]	SMILES
	41.8	Cc1ccccc1-c1cc(O)c2c(c1)CN(c1nccs1)CCO2 [Compound S1-3]
> 100	> 100	Cc1ccccc1-c1cc(O)c2c(c1)CN(c1cc(N)ncn1)CCO2 [Compound S1-4]
> 100	> 100	Cc1nsc(NC(=O)N2CCC(Cn3ccnc3)CC2)n1 [Compound S2-7]
	37.6	CC(=O)NCCC(=O)NCc1ccc2[nH]c(-c3ccccc3F)c(C)c2c1 [Compound S3-13]
	16	Cc1c(-c2ccccc2F)[nH]c2ccc(CNC(=O)c3ccc(CO)o3)cc12 [Compound S3-14]
	8.8	Cc1cccc2c(-c3ccc(O)c(F)c3)c[nH]c12 [Compound S3-17]
